Tests used:
Assay in all cases: relative viability (nuclei count vs DMSO), 5 days (fraction); higher = more cells survive
[1] = compound: CC(C)C[C@H](NC(=O)[C@H](CCc1ccccc1)NC(=O)CN1CCOCC1)C(=O)N[C@@H](Cc1ccccc1)C(=O)N[C@@H](CC(C)C)C(=O)[C@@]1(C)CO1 [Carfilzomib] + CC(=O)c1c(C)c2cnc(Nc3ccc(N4CCNCC4)cn3)nc2n(C2CCCC2)c1=O [Palbociclib] (partner 0.5 µM)
Summary of the method: (§1)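 One day after seeding in 1536-well plates, lung cancer cell lines were dosed by pin tool. Dosing was either single-drug or a fixed anchor-drug dose plus five library-drug doses (not always all listed) in √10 steps. After 5 days, nuclei were stained in one fix-and-stain step and counted on 4× images, and relative viability is the nuclei count of treated wells over that of vehicle wells, given as the median of duplicate plates.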

[2] = compound: CC(C)C[C@H](NC(=O)[C@H](CCc1ccccc1)NC(=O)CN1CCOCC1)C(=O)N[C@@H](Cc1ccccc1)C(=O)N[C@@H](CC(C)C)C(=O)[C@@]1(C)CO1 [Carfilzomib] + Nc1ncn([C@H]2C[C@H](O)[C@@H](CO)O2)c(=O)n1 [Decitabine] (partner 2 µM)
Summary of the method: as §1

[3] = compound: O=C(c1cc(Cc2n[nH]c(=O)c3ccccc23)ccc1F)N1CCN(C(=O)C2CC2)CC1 [Olaparib] + Cc1nc(Nc2ncc(C(=O)Nc3c(C)cccc3Cl)s2)cc(N2CCN(CCO)CC2)n1 [Dasatinib] (partner 0.075 µM)
Summary of the method: as §1

[4] = compound: O=C(c1cc(Cc2n[nH]c(=O)c3ccccc23)ccc1F)N1CCN(C(=O)C2CC2)CC1 [Olaparib] + CC(=O)Nc1cccc(-n2c(=O)n(C3CC3)c(=O)c3c(Nc4ccc(I)cc4F)n(C)c(=O)c(C)c32)c1 [Trametinib] (partner 0.02 µM)
Summary of the method: as §1

With NCI-H1793 the relative viability ([1]; first compound 0.001 µM) was 0.338, the relative viability ([1]; first compound 0.003162 µM) was 0.402 and the relative viability ([1]; first compound 0.01 µM) was 0.331. The relative viability ([1]; first compound 0.03162 µM) was 0.275, the relative viability ([1]; first compound 0.1 µM) was 0.197 and the relative viability ([2]; first compound 0.001 µM) was 0.494. For the same cell line, the relative viability ([2]; first compound 0.003162 µM) was 0.61, the relative viability ([2]; first compound 0.01 µM) was 0.531 and the relative viability ([2]; first compound 0.03162 µM) was 0.562. The relative viability ([2]; first compound 0.1 µM) was 0.194, the relative viability ([3]; first compound 0.08 µM) was 0.377 and the relative viability ([3]; first compound 0.253 µM) was 0.38. It also gave a relative viability ([3]; first compound 2.53 µM) of 0.353, a relative viability ([3]; first compound 8 µM) of 0.303 and a relative viability ([4]; first compound 0.08 µM) of 0.522. It also gave a relative viability ([4]; first compound 0.253 µM) of 0.427, a relative viability ([4]; first compound 2.53 µM) of 0.395 and a relative viability ([4]; first compound 8 µM) of 0.476.

From the supplement of paper PMC10307832
